Assay results as given in US8450525B2, “Histone deacetylase inhibitors” (Orchid Chemicals & Pharmaceuticals Limited, priority 2007, dated 2013).

How the values were obtained:
HCT 116 (colon) cells = assay: Anti-cancer screen, growth inhibition (MTT); format: cell-based; settings: Homo sapiens, HCT-116 cells, 48 hours of incubation
Method: (§1) Experimental drugs were screened for anti-cancer activity in three cell fines using five concentrations for each compound.
(§2) Following 24-hour incubation, test compounds were added to the 96 well plates. Each plate contains one of the above cell lines and the following samples in triplicate: five different dilutions (0.01, 0.1, 1, 10 and 100 μM) of four test compounds, appropriate dilutions of a cytotoxic standard and growth medium (untreated) wells. […] SAHA was used as standard drug in these experiments.
(§3) For T0 measurement, 24 hours after seeding the cells, 20 μL of 3-(4.5-dimethyl-2-thiazolyl)-2,5-diphenyl-2H-tetrazolium (MTT) solution per well was added to the ‘T0’ plate and incubated for 3 hours at 37° C. in a CO2 incubator. The plate containing cells and test compounds was treated similarly after 48 hours of incubation. After 3 hours of MTT addition, well contents were aspirated carefully followed by addition of 150 μL DMSO per well. Plates were agitated to ensure dissolution of the formazan crystals in DMSO and absorbance was read at 570 nm (A570).

NCI-H460 (lung) cells = assay: Anti-cancer screen, growth inhibition (MTT); format: cell-based; settings: Homo sapiens, 48 hours of incubation
Method: as §1, §2, §3

U251 (glioma) cells = assay: Anti-cancer screen, growth inhibition (MTT); format: cell-based; settings: Homo sapiens, U-251 cells, 48 hours of incubation
Method: as §1, §2, §3

[1] = test system: T1, HDAC (Mouse Liver Extract); assay: HDAC inhibition assay using Boc-Lys(Ac)-AMC substrate, mouse liver enzyme; format: biochemical
T1 construct: Mouse liver enzyme (10 mg/ml) was diluted 1:6 with HDAC buffer
Method: Histone Deacetylase (HDAC) Inhibition Assay using Boc-Lys (Ac)-AMC Substrate: Inhibition of HDAC has been implicated to modulate transcription and to induce apoptosis or differentiation in cancer cells. The fluorometric assay provides a fast and fluorescence based method that eliminates radioactivity, extractions or chromatography, as used in traditional assays. The assay is based on two steps. First, the HDAC fluorometric substrate, which comprises an acetylated lysine side chain, is incubated with a sample containing HDAC activity (Mouse Liver Extract). Deacetylation of the substrate sensitizes the substrate, in the second step; treatment with the Trypsin stop solution produces a fluorophore that can be easily analyzed using fluorescence plate reader.
Assay was done in 96-well black microplate and total volume of the assay was 100 μL. Mouse liver enzyme (10 mg/ml) was diluted 1:6 with HDAC buffer. Enzyme cocktail was made of 10 μL of diluted enzyme and 30 μL of HDAC buffer. 40 μl of enzyme cocktail followed by 10 μL of test compound (1 μM and 10 μM) or buffer (control) was added to each well. The plate was pre-incubated at 37° C. for 5 minutes. The HDAC reaction was started by adding 50 μl of HDAC substrate Boc-Lys (Ac)-AMC (Bachem AG, Switzerland). The plate was incubated at 37° C. for 30 minutes. […] Measuring the fluorescence at excitation wavelength of 360 nm and emission wavelength of 460 nm monitored the release of AMC. Buffer alone and substrate alone served as blank.

Row | GI50 (HCT 116 (colon) cells) [µM] | GI50 (NCI-H460 (lung) cells) [µM] | GI50 (U251 (glioma) cells) [µM] | HDAC Inhibition % (1 μM) [1] [%] | HDAC Inhibition % (10 μM) [1] [%] | Compound
1 | 1 | 30 | 19 |  |  | O=C(/C=C/c1ccc(/C(=C\c2ccc(OCC3CC3)cc2)C(=O)NC2CC2)cc1)NO [Example 49, N-Cyclopropyl-3-(4-cyclopropylmethoxyphenyl)-2-(4-((1E)-3-(hydroxyamino)-3-oxoprop-1-en-1-yl)phenyl)acrylamide]
2 | 20 | 59.2 |  | 11.5 | 49.9 | Nc1ccccc1NC(=O)/C=C/c1ccc(/C=C(/C(=O)NC2CC2)c2ccc(F)cc2)cc1 [Example 59]
3 | 68 | > 100 |  | 12.3 | 14.6 | Nc1ccccc1NC(=O)/C=C/c1ccc(/C=C(/C(=O)NC2CC2)c2ccc(C(F)(F)F)cc2)cc1 [Example 61, N-Cyclopropyl-3-(4-((1E)-3-(2-aminophenylamino)-3-oxoprop-1-en-1-yl}phenyl)-2-(4-(trifluoromethyl)phenyl)acrylamide]
4 | 64 | > 100 |  | 27.1 | 58.0 | Nc1ccccc1NC(=O)/C=C/c1ccc(/C=C(/C(=O)NC2CC2)c2cccnc2)cc1 [Example 62, N-Cyclopropyl-3-(4-((1E)-3-(2-aminophenylamino)-3-oxoprop-1-en-1-yl}phenyl)-2-(pyridin-3-yl)acrylamide]
5 | 58 | 67 |  | 39.8 | 76.2 | COc1ccc(/C(=C\c2ccc(C(=O)NO)cc2)C(=O)NC2CC2)cc1 [Example 100, 4-(3-(Cyclopropylamino)-2-(4-methoxyphenyl)-3-oxoprop-1-en-1-yl)-N-hydroxy benzamide]
6 | 44 | 60 |  | 44.6 | 84.9 | COc1cccc(/C(=C\c2ccc(C(=O)NO)cc2)C(=O)NC2CC2)c1 [Example 101, 4-(3-(Cyclopropylamino)-2-(3-methoxyphenyl)-3-oxoprop-1-en-1-yl)-N-hydroxy benzamide]
7 | 29 | 68 | 20 |  |  | O=C(NC1CC1)/C(=C/c1ccc(C(=O)NO)cc1)c1ccccc1F [Example 103, 4-(3-(Cyclopropylamino)-2-(2-fluorophenyl)-3-oxoprop-1-en-1-yl)-N-hydroxy benzamide]

Further lines, the compound ahead of its results:

Row | Compound | GI50 (HCT 116 (colon) cells) [µM] | GI50 (NCI-H460 (lung) cells) [µM] | GI50 (U251 (glioma) cells) [µM] | HDAC Inhibition % (1 μM) [1] [%] | HDAC Inhibition % (10 μM) [1] [%]
8 | CNC(=O)/C(=C/c1ccc(/C=C/C(=O)NO)cc1)c1ccc(F)cc1 [Example 2, N-Methyl-2-(4-fluorophenyl)-3-(4-((1E)-3-(hydroxyamino)-3-oxoprop-1-en-1-yl)phenyl)acrylamide] | 7.8 | 28 | 4.5 |  | 
9 | CN(C)C(=O)/C(=C/c1ccc(/C=C/C(=O)NO)cc1)c1ccc(F)cc1 [Example 3, N,N-Dimethyl-2-(4-fluorophenyl)-3-(4-((1E)-3-(hydroxyamino)-3-oxoprop-1-en-1-yl)phenyl)acrylamide] | 8.5 | 48 | 21.8 |  | 
10 | Nc1ccccc1NC(=O)/C=C/c1ccc(/C=C(/C(=O)N2CCOCC2)c2ccc(F)cc2)cc1 [Example 68, N-Morpholino-3-(4-((1E)-3-(2-aminophenylamino)-3-oxoprop-1-en-1-yl}phenyl)-2-(4-fluorophenyl)acrylamide] |  | 80 |  | 19.1 | 21.1
11 | CN(C)C(=O)/C(=C/c1ccc(/C=C/C(=O)NCCCCCC(=O)NO)cc1)c1ccc(F)cc1 [Example 76, 6-((1E)-3-(4-(3-(N,N-Dimethylamino)-2-(4-fluorophenyl)-3-oxoprop-1-en-1-yl)phenyl)acrylamido)-N-hydroxyhexanamide] | 10 | 20 |  |  | 
12 | O=C(/C=C/c1ccc(CNC(=O)c2ccc(/C=C(/C(=O)NC3CC3)c3ccc(F)cc3)cc2)cc1)NO [Example 145, 4-(3-(Cyclopropylamino)-2-(4-fluorophenyl)-3-oxoprop-1-en-1-yl)-N-(4-((E)-3-(hydroxyamino)-3-oxoprop-1-en-1-yl)benzyl)benzamide] | 1.6 | 0.5 | 0.08 |  | 
